{"source": "patent US11572590B2", "about": "“Methods for evaluating tumor cell spheroids using 3D microfluidic cell culture device” (Dana-Farber Cancer Institute, Inc., priority 2017, dated 2023)", "assay_in_all_cases": "SelectScreen Kinase Profiling, single point inhibition and IC50 for off-target kinases", "type_in_all_cases": "biochemical", "key": {"[1]": {"biological_target": "T1, off-target kinases (Homo sapiens, UniProt O00141)", "T1 sequence (O00141 1-431)": "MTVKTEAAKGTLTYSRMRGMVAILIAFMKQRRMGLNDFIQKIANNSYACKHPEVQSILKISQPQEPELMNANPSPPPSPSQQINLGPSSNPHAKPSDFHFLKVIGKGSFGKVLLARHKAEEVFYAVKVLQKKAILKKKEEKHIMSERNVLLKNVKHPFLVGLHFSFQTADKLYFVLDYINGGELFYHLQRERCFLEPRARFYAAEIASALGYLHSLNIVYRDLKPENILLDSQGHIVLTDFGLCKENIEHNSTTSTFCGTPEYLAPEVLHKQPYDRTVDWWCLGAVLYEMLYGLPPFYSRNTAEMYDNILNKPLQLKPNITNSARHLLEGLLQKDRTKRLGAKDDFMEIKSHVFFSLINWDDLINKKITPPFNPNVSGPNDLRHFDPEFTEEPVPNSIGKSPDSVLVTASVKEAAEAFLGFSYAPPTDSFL", "conditions": "SGK (SGK1), ZLYTE, ATP Km app"}, "[2]": {"biological_target": "off-target kinases (Homo sapiens, UniProt P07949, V804L)", "sequence (P07949 29-1114 V804L)": "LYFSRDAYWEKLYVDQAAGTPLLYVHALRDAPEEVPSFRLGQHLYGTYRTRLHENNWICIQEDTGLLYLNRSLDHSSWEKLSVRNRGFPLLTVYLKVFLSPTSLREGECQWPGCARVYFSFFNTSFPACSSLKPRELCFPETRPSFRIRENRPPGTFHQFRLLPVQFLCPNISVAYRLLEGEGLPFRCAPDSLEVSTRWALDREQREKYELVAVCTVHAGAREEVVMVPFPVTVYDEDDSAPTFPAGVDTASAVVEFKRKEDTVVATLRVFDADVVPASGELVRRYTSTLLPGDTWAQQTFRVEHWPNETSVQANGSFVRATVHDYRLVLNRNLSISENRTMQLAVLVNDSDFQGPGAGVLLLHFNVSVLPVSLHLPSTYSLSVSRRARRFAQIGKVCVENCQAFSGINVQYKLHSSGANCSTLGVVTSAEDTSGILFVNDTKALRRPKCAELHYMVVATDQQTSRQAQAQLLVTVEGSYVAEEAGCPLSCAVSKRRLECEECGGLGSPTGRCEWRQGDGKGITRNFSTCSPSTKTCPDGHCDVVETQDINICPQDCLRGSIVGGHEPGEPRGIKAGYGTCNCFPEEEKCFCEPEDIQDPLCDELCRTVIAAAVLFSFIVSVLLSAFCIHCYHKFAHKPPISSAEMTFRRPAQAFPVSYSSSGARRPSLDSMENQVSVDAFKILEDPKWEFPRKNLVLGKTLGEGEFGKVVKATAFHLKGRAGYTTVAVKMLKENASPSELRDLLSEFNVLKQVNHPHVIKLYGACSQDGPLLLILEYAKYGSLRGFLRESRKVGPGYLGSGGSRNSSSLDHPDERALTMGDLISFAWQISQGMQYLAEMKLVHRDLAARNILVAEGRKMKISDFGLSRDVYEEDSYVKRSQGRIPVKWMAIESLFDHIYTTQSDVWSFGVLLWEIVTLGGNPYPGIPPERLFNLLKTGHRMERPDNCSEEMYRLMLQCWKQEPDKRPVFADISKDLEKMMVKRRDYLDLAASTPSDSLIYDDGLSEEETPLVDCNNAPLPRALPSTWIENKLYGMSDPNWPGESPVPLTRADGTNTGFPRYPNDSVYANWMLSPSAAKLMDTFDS", "conditions": "RET V804L, ATP Km app, ZLYTE"}, "[3]": {"biological_target": "off-target kinases (Homo sapiens, UniProt P10721, T670E)", "sequence (P10721 26-976 T670E)": "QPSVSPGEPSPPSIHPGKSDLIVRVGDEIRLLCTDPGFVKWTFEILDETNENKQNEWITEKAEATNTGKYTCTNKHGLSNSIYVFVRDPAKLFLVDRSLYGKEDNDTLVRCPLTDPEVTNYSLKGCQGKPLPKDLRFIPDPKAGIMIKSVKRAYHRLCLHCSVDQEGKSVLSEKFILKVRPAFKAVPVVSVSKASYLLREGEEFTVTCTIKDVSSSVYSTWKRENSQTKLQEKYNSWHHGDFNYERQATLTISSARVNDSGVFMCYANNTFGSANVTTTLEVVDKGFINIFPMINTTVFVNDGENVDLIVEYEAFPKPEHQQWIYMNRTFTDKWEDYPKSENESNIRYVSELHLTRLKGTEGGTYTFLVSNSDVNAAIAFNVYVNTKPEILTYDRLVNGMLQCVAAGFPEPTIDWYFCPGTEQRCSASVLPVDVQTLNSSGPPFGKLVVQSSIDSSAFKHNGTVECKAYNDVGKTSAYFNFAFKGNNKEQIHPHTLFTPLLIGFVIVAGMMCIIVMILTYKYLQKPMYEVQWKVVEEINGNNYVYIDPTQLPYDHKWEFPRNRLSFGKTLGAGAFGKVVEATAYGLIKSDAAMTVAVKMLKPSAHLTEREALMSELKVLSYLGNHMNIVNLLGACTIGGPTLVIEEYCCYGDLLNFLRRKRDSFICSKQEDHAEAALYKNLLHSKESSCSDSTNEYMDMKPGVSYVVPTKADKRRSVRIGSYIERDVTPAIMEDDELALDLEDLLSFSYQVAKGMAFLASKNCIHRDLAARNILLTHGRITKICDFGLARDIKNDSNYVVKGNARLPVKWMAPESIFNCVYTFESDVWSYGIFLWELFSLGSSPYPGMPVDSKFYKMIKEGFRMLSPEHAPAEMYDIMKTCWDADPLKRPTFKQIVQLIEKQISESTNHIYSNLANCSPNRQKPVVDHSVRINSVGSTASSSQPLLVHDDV", "conditions": "KIT T670E (mutant), LanthaScreen Binding"}, "[4]": {"biological_target": "off-target kinases (Homo sapiens, UniProt P21802)", "sequence (P21802 22-821)": "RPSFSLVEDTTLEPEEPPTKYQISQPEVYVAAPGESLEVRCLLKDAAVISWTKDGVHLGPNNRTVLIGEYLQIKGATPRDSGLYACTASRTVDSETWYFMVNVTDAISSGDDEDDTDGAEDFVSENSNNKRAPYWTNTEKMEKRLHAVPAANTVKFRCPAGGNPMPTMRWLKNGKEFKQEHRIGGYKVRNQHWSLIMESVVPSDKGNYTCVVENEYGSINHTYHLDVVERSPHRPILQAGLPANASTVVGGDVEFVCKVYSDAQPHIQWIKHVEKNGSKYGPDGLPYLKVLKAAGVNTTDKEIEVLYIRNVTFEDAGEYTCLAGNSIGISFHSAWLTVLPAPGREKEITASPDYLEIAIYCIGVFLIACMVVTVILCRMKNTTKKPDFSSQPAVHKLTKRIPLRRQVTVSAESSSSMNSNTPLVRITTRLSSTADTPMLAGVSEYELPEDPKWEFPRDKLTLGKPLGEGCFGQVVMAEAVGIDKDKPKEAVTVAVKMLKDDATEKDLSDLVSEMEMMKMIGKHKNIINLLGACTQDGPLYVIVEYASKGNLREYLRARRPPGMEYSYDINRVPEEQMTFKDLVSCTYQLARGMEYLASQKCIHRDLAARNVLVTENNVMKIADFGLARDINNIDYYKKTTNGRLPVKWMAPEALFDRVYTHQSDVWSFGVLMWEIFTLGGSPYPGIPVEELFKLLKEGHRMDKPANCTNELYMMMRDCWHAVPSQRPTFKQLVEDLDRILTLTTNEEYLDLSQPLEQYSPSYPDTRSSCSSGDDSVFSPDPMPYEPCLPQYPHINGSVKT", "conditions": "FGFR2, ZLYTE, ATP Km app"}, "[5]": {"biological_target": "off-target kinases (Homo sapiens, UniProt P36888, D835Y)", "conditions": "FLT3 D835Y, ATP Km app, ZLYTE"}, "[6]": {"biological_target": "off-target kinases (Homo sapiens, UniProt P48730)", "sequence (P48730 whole entry)": "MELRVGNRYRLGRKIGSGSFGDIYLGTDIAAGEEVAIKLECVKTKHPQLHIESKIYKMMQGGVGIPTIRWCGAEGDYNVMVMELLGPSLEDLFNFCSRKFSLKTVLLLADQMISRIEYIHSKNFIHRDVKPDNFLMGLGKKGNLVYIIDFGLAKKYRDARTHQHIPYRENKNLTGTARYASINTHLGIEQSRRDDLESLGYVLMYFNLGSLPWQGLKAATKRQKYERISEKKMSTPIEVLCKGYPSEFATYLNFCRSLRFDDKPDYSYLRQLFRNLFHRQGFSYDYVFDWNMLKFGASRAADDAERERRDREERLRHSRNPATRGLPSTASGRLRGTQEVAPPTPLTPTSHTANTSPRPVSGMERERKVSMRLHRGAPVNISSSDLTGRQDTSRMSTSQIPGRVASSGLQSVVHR", "conditions": "CSNK1D (CK1 delta), ZLYTE, ATP Km app"}, "[7]": {"biological_target": "off-target kinases (Homo sapiens, UniProt P51957)", "sequence (P51957 whole entry)": "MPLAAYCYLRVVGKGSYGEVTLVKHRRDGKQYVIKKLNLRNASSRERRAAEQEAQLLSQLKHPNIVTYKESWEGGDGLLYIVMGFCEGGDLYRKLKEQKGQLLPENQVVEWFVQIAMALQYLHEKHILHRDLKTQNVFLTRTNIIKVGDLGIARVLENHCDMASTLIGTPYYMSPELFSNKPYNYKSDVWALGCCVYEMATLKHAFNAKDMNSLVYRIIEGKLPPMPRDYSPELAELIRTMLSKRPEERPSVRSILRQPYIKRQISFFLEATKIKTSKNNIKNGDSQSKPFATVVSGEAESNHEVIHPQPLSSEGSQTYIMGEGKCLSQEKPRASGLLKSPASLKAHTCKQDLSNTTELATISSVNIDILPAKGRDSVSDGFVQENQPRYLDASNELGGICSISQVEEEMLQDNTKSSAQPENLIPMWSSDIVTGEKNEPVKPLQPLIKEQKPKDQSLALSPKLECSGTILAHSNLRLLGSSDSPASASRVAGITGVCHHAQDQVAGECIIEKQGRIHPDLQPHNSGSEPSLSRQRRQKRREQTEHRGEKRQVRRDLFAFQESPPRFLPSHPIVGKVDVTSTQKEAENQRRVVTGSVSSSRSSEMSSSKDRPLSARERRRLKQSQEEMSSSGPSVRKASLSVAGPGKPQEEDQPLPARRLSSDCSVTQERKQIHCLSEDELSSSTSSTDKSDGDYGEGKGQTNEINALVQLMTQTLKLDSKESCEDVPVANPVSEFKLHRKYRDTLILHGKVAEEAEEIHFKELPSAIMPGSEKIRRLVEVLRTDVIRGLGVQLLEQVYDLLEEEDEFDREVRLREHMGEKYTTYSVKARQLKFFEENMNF", "conditions": "NEK4, ZLYTE, ATP Km app"}, "[8]": {"biological_target": "off-target kinases (Homo sapiens, UniProt Q15746)", "conditions": "MYLK (MLCK), LanthaScreen Binding"}, "[9]": {"biological_target": "T2, off-target kinases (Homo sapiens, UniProt Q9BXA7)", "T2 sequence (Q9BXA7 1-367)": "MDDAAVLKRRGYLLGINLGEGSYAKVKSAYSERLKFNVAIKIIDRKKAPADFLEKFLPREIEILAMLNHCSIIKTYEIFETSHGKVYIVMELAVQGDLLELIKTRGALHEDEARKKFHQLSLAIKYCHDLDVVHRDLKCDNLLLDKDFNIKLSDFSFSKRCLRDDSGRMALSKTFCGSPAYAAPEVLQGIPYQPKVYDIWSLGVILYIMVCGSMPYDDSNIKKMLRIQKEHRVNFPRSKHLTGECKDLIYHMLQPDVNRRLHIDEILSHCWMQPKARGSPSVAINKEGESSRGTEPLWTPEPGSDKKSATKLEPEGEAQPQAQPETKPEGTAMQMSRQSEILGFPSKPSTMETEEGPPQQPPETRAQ", "conditions": "STK22D (TSSK1), ATP Km app, ZLYTE"}}, "note": "Read-outs that look alike come from different tables or passages of the source."}
{"smiles": "N#Cc1cc(-c2ncnc(Nc3ccc(N4CCN(C5COC5)CC4)cc3)n2)ccc1OC1CCOCC1", "note": "[Compound 1, 5-(4-((4-(4-(oxetan-3-yl)piperazin-1-yl)phenyl)amino)-1,3,5-triazin-2-yl)-2-((tetrahydro-2H-pyran-4-yl)oxy)benzonitrile]", "values": [{"measurement": "inhibition", "setting": "[1]; read-out: % Inhibition 1", "value": 28, "unit": "%"}, {"measurement": "inhibition", "setting": "[1]; read-out: % Inhibition 2", "value": 26, "unit": "%"}, {"measurement": "inhibition", "setting": "[1]; read-out: % Inhibition Avg", "value": 27, "unit": "%"}, {"measurement": "inhibition", "setting": "[2]; read-out: % Inhibition 1", "value": 71, "unit": "%"}, {"measurement": "inhibition", "setting": "[2]; read-out: % Inhibition 2", "value": 66, "unit": "%"}, {"measurement": "inhibition", "setting": "[2]; read-out: % Inhibition Avg", "value": 69, "unit": "%"}, {"measurement": "inhibition", "setting": "[3]; read-out: % Inhibition 1", "value": 2, "unit": "%"}, {"measurement": "inhibition", "setting": "[3]; read-out: % Inhibition 2", "value": 2, "unit": "%"}, {"measurement": "inhibition", "setting": "[3]; read-out: % Inhibition Avg", "value": 2, "unit": "%"}, {"measurement": "inhibition", "setting": "[4]; read-out: % Inhibition 1", "value": 12, "unit": "%"}, {"measurement": "inhibition", "setting": "[4]; read-out: % Inhibition 2", "value": 11, "unit": "%"}, {"measurement": "inhibition", "setting": "[4]; read-out: % Inhibition Avg", "value": 12, "unit": "%"}, {"measurement": "inhibition", "setting": "[5]; read-out: % Inhibition 1", "value": 83, "unit": "%"}, {"measurement": "inhibition", "setting": "[5]; read-out: % Inhibition 2", "value": 81, "unit": "%"}, {"measurement": "inhibition", "setting": "[5]; read-out: % Inhibition Avg", "value": 82, "unit": "%"}, {"measurement": "inhibition", "setting": "[6]; read-out: % Inhibition 1", "value": -1, "unit": "%"}, {"measurement": "inhibition", "setting": "[6]; read-out: % Inhibition 2", "value": -5, "unit": "%"}, {"measurement": "inhibition", "setting": "[6]; read-out: % Inhibition Avg", "value": -3, "unit": "%"}, {"measurement": "inhibition", "setting": "[7]; read-out: % Inhibition 1", "value": 23, "unit": "%"}, {"measurement": "inhibition", "setting": "[7]; read-out: % Inhibition 2", "value": 23, "unit": "%"}, {"measurement": "inhibition", "setting": "[7]; read-out: % Inhibition Avg", "value": 23, "unit": "%"}, {"measurement": "inhibition", "setting": "[8]; read-out: % Inhibition 1", "value": 5, "unit": "%"}, {"measurement": "inhibition", "setting": "[8]; read-out: % Inhibition 2", "value": 3, "unit": "%"}, {"measurement": "inhibition", "setting": "[8]; read-out: % Inhibition Avg", "value": 4, "unit": "%"}, {"measurement": "inhibition", "setting": "[9]; read-out: % Inhibition 1", "value": 99, "unit": "%"}, {"measurement": "inhibition", "setting": "[9]; read-out: % Inhibition 2", "value": 95, "unit": "%"}, {"measurement": "inhibition", "setting": "[9]; read-out: % Inhibition Avg", "value": 97, "unit": "%"}]}
